Laboratory results: US20260157967A1, “METHOD FOR PREPARING MEDICINES, HAVING REDUCED PRODUCTION TIME AND IMPROVED STABILITY” (DR.INB CO., priority 2021, published 2026)

Tested on: cancer cells (PANC-1)
Experiment: CCK8 assay of the efficiency of killing cancer cells, with or without laser irradiation (FIG. 4)
Type: cell-based
Conditions: PANC-1, FIG. 4a, docetaxel treatment at various concentrations
Description: 1 g of polyvinylpyrrolidone (PVP, Sigma-Aldrich) was dissolved in 20 g of ultrapure water and stirred in a mixing chamber at 1500 RPM for 30 minutes to obtain an aqueous PVP solution. Subsequently, 131.7 mg of potassium hexacyanoferrate (III) trihydrate (K3Fe(CN)6·3H2O, Sigma-Aldrich) was dissolved in 20 g of ultrapure water and mixed with the aqueous PVP solution. Then, 400 μl of 1 M HCl (Sigma-Aldrich) was added to the mixing chamber and vortexed at 60 J/s. After movement through an injection pipe, the solution thus prepared was subjected to a step of allowing gas to flow at a high speed on the inner boundary of a reaction chamber and in a liquid cutting tube at an applied voltage of 30 kV, a distance of 25 cm between the reaction chamber and the end of the injection pipe, and a temperature of 140° C. As indicated by the green arrows in FIG. 1, the gas is moved toward the upper portion of the reaction chamber through a structure in which the boundary of the reaction chamber and the liquid cutting tube are at 0.29 rad and the gap of the boundary is 900 nm. As the gas passed, the prepared solution was cut into small pieces. The cut liquid received heat in the reaction chamber and the temperature thereof rose quickly compared to bulk liquid having the same total volume (40 ml) due to heat transfer within the liquid (FIG. 3). […]

Structure (SMILES): CC(=O)O[C@@]12CO[C@@H]1C[C@H](O)[C@@]1(C)C(=O)[C@H](O)C3=C(C)[C@@H](OC(=O)[C@H](O)[C@@H](NC(=O)OC(C)(C)C)c4ccccc4)C[C@@](O)([C@@H](OC(=O)c4ccccc4)[C@H]21)C3(C)C [docetaxel]
- efficiency of killing cancer cells: increased the efficiency of killing cancer cells with an increase in the treatment concentration
